These results are taken from patent publication US20060142204A1, “Pyrrolidine derivatives for use in treating heaptitis c virus infection” (GENOSCIENCE, priority 2002, published 2006).

pIC50: −log10 of the molar value. Like-named read-outs stand apart in the source and are kept apart here. Non-standard residues stand in square brackets, D forms with d. Residues, ends and D or L forms follow the SMILES beside them. *: point of attachment. dGla = N[C@H](CC(C(=O)O)C(=O)O)C(=O)O; Hyp = O=C(O)[C@@H]1C[C@@H](O)CN1; Cha = N[C@@H](CC1CCCCC1)C(=O)O; Abu = CC[C@H](N)C(=O)O; tBu = CC(C)(C)*

In data set [1] the target is full-length NS3/NS4A complex (Hepatitis C virus genotype 1a, UniProt P27958). Kind of data set: biochemical. An excerpt: Operating Method for HCV NS3-4A Activity Assay:
Inhibition data were obtained on the full-length NS3/NS4A complex. […] A summary of the NS3 protease activity assay is described bellow.
We used the full-length NS4A-NS3 protease and a recombinant EGPF-NS5A/B-CBD fusion protein serving as a fluorescent substrate for the determination of the compounds activity.
The fluorogenic substrate was built in three parts: a Green fluorescent protein (EGFP), a peptide corresponding to the NS5A-NS5B junctions ([…]) and a Cellulose Binding Domain (CBD). The NS5A/B is the more efficiently cleavage site for NS3 than at other cleavage site of HCV polyprotein (references 15). After cleavage reaction of EGFP-NS5A/B-CBD by NS3, the un-cleaved substrate and the C-terminal domain of cleaved substrate are fixed on cellulose. After centrifugation, the released free EGFP-NS5A was quantified by fluorometry.
The inhibitors were tested in triplicate in each experiment. The inhibitor was pre-incubated with the NS3 enzyme (50 nM final concentration) for 5 minutes at 37° C. The substrate was added (100 nM final concentration) and incubated at 37° C. for 40 minutes. Then, the reaction mixture was transferred into an Eppendorf containing 5 mg of pre-equilibrated cellulose with reaction buffer 1× and agitated at room temperature for 10 minutes followed by centrifugation for 5 min at 13000 rpm. The supernatant (100 μL) containing liberated green fluorescent protein was transferred to a black 96 well plate and data was collected by a fluorometer (excitation λ=485 nm, and emission λ=538 nm). For each black 96 well plate the control of the activity and inhibition of NS3 protease, fluorescence background noise and the measure of the total fluorescence were performed. The fluorogenic substrate EGFP-NS5A/B-CBD at 100 nM final concentration was incubated with NS3 protease at 50 nM final concentration for the control of the NS3 activity. The inhibitors Ac-Asp-D-Gla-Leu-Ile-β-cyclohexyl-Ala-Cys-OH (CHAC), (references 16) PMSF and TPCK were used at various concentrations to validate the inhibition of NS3 protease reaction. The fluorescence background noise was obtained with the fluorogenic substrate EGFP-NS5A/B-CBD at 100 nM, and the control of the maximum fluorescence was obtained with the fluorogenic substrate EGFP-NS5A/B-CBD at 100 nM without the step of the fixation on pre-equilibrated cellulose.

For the next data set, the system named is HCV. Kind of data set: HCV replication in primary cultures of human hepatocytes infected in vitro. It counts as cell-based, HCV genotype 3 (serum S183) in human hepatocytes. Conditions: 1 μM of compound; hepatocyte cultures FT200, FT201, FT203; 5 days; FIG. 5. How it is done: More particularly, the in vitro primary cultures of human hepatocytes were prepared as follows: hepatocytes were prepared from liver tissue resected from donors who tested negative for HCV, and inoculation was performed 3 days after plating with 33 HCV serum samples of different virus load and genotype. The presence of intracellular HCV RNA, detected by a strand-specific rTth RT-PCR assay, was used as evidence of infection. […] At day 5, the copy level of viral RNA was estimated to be amplified at least 15-fold in infected cells. […] This model represents therefore a valuable tool for the study of initial steps of the HCV replication cycle and for the evaluation of antiviral molecules.
The basic protocol was as follows: 1) human hepatocytes extracted from liver lobectomies of HCV-negative patients were cultured in the long-term culture system mentioned above; 2) cells were then infected in vitro with an aliquot of serum from HCV-positive patients; 3) after a few days of culture (1 to 14 days), cellular RNA was extracted and analyzed for HCV RNA (+) and (−) strands using a highly specific rtTh. […]
RNA was extracted and analyzed using: first, rtTh RT-PCR and agarose gel electrophoresis (control of the presence of the replicative strand); and second, quantitative RT-PCR using (a) the genomic strand of HCV, and (b) GAPDH RNA/GAPDH RNA as an internal control. […]

The test system of the next data set is four different strains. Kind of data set: ames test. Conditions: with or without metabolic activation. An excerpt:
The compounds of the present invention present the advantage to be non bactericidal and/or non mutagenic. The ames test with four different strains, with or without metabolic activation, has been carried out with the above cited compounds (in particular, compound 5). The results thereof have shown that the compounds above identified (in particular, compound 5) are non mutagenic.

The mark [2] stands for this setting: enzyme 50 nM, substrate 100 nM, 37° C., 40 minutes, read-out: NS3 IC50.

full-length NS3/NS4A complex, sequence (P27958 1027-1657): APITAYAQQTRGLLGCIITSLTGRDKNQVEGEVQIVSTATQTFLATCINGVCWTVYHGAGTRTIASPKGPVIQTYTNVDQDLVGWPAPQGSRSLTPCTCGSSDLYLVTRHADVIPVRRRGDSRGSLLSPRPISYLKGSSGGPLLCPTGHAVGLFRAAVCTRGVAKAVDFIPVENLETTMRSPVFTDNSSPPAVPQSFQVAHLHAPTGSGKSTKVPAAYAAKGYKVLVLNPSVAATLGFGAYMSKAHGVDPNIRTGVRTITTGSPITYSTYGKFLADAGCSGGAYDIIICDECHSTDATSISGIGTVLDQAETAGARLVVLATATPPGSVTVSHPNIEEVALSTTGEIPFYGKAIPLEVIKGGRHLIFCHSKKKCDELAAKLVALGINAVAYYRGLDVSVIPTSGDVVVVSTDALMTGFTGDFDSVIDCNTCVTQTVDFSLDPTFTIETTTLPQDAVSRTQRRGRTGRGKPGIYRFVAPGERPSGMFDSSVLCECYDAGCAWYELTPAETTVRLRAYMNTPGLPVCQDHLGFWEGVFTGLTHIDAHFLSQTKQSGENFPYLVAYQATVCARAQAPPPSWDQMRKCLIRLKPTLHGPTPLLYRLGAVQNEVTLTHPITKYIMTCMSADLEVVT
full-length NS3/NS4A complex, sequence (P27958 1658-1711): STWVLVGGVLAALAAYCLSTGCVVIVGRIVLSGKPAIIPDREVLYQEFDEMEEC

By pIC50 is commonly meant the IC50 on a negative log10 scale, so that one unit is a factor of ten. Regarding `CC[C@H](C)[C@H](NC(=O)[C@H](CC(C)C)NC(=O)[C@@H](CC(C(=O)O)C(=O)O)NC(=O)[C@H](CC(=O)O)NC(C)=O)C(=O)N[C@@H](CC1CCCCC1)C(=O)N[C@@H](CS)C(=O)O` [CHAC, Ac-Asp-D-Gla-Leu-Ile-β-cyclohexyl-Ala-Cys-OH, reference compound] (Ac-D[dGla]LI[Cha]C-OH), the negative logarithm of the IC50 (pIC50) in data set [1] was 7.40.

`CC(C)(C)OC(=O)N[C@@H](CCC(=O)O)C(=O)N1C[C@H](OC(C)(C)C)C[C@H]1C(=O)NC(CC(F)(F)F)C(=O)O` (stereo partly drawn) [Compound 5]: the pIC50 in data set [1] (setting [2]) is 3.82. In addition, the “Inhibitory effect expressed as the ratio HCV RNA/GAPDH RNA” value with HCV is “significant inhibitory effect”. For the same compound, the “mutagenicity (ames test)” value in the data set on four different strains is on record as “non mutagenic”.

For `CC[C@H](NC(=O)[C@@H]1C[C@@H](OC(C)(C)C)CN1C(=O)[C@@H](NC(C)=O)C(C)C)C(=O)O` [Compound 18] (Ac-Val-[Hyp](tBu)-[Abu]-OH), in data set [1] (setting [2]), the pIC50 is 4.52.

In data set [1], `Cc1ccc(S(=O)(=O)NC(Cc2ccccc2)C(=O)CCl)cc1` [TPCK, L-1-4′-Tosylamino-2-phenylethyl chloromethyl ketone, reference compound] had a negative logarithm of the IC50 (pIC50) of 3.05.
